# Measurements reported in patent EP4818171A1 (Apeiron Therapeutics (Hong Kong) Ltd., priority 2024, dated 2025).
# Where two headings read alike, the source gives them in different places.
# Assays:
# HCT-116 wild-type cells = experiment: Inhibitory activity on proliferation of HCT-116 wild-type cells (Cell-Titer Glo); format: cell-based; conditions: 8 d incubation
# Experimental: Cell culture: HCT-116 wild-type cells were cultured with a RPMI-1640 medium containing 10% fetal bovine serum+1% penicillin-streptomycin at 37°C in 5% carbon dioxide. Only cells in the logarithmic growth phase could be used for the test.
# Test of cell proliferation activity: Cell-Titer Glo kit was used to test the proliferation inhibitory activity of the compound on HCT-116 wild-type cells. The cell concentration was adjusted, rendering that cells were inoculated into a 384-well plate at 40 µL per well and incubated overnight at 37°C and 5% carbon dioxide. 40 nL of the compound was added to each well to reach a final concentration of 0-10,000 nM (starting concentration 10,000 nM, 2-fold dilution, 10 points), and the cell plate with 0.1% DMSO content was incubated at 37°C and 5% carbon dioxide for 8 d. 40 µL of Cell-Titer Glo reagent was added to test cell viability.
# [1] = tested on: LU99 MTAP(-/-)deleted cells; experiment: Inhibitory activity on proliferation of LU99 MTAP(-/-)deleted cells (Cell-Titer Glo)
# Experimental: Materials and cells: LU99 MTAP deleted cell line was purchased from Kyinno Biotechnology (China); cell culture medium and fetal bovine serum were purchased from Thermo Fisher Scientific (USA); 384-well plates were purchased from PerkinElmer (USA); Cell-Titer Glo kits were purchased from Promega (USA). Cell culture: LU99 MTAP(-/-)deleted cells were cultured with medium containing 10% fetal bovine serum at 37°C in 5% carbon dioxide. Only cells in the logarithmic growth phase could be used for the test.
# Test of inhibitory activity on cell proliferation: The Cell-Titer Glo kit was used to test the proliferation inhibitory activity of the compounds on LU99 MTAP(-/-)deleted cells. The cell concentration was adjusted, rendering that cells were inoculated into a 384-well plate at 40 µL per well and incubated overnight at 37°C and 5% carbon dioxide. […] 40 µL of Cell-Titer Glo reagent was added to test cell viability.
# [2] = tested on: HCT-116 MTAP(-/-)deleted cells; experiment: Inhibitory activity on proliferation of HCT-116 MTAP(-/-)deleted cells (Cell-Titer Glo); conditions: read-out: IC50 (nM) HCT-116 MTAP(-/-)deleted
# Experimental: Only cells in the logarithmic growth phase could be used for the test. […] The cell concentration was adjusted, rendering that cells were inoculated into a 384-well plate at 40 µL per well and incubated overnight at 37°C and 5% carbon dioxide. 40 nL of the compound was added to each well to reach a final concentration of 0-10,000 nM (starting concentration 10,000 nM, 3-fold dilution, 10 points), and the cell plate with 0.1% DMSO content was incubated at 37°C and 5% carbon dioxide for 8 d. 40 µL of Cell-Titer Glo reagent was added to test cell viability.
# [3] = tested on: LU99 MTAP overexpressing cells; experiment: Inhibitory activity on proliferation of LU99 MTAP overexpressing cells (Cell-Titer Glo); format: cell-based; conditions: 6 d incubation
# Experimental: Materials and cells: LU99 MTAP overexpressing cell line was purchased from Kyinno Biotechnology (China); cell culture medium and fetal bovine serum were purchased from Thermo Fisher Scientific (USA); 384-well plates were purchased from PerkinElmer (USA); Cell-Titer Glo kits were purchased from Promega (USA).
# Cell culture: LU99 MTAP overexpressing cells were cultured with medium containing 10% fetal bovine serum at 37°C in 5% carbon dioxide. Only cells in the logarithmic growth phase could be used for the test.
# Test of inhibitory activity on cell proliferation: The Cell-Titer Glo kit was used to test the proliferation inhibitory activity of the compounds on LU99 MTAP overexpressing cells. The cell concentration was adjusted, rendering that cells were inoculated into a 384-well plate at 40 µL per well and incubated overnight at 37°C and 5% carbon dioxide. 40 nL of the compound was added to each well to reach a final concentration of 0-10,000 nM (starting concentration 10,000 nM, 2.5-fold dilution, 10 points), and the cell plate with 0.2% DMSO content was incubated at 37°C and 5% carbon dioxide for 6 d. 40 µL of Cell-Titer Glo reagent was added to test cell viability.
# [4] = read-out: IC50 (nM) Lu99 MTAP(-/-)Deleted, LU99 MTAP(-/-)deleted cells, 6 d incubation, Cell-Titer Glo
# [5] = Homo sapiens, Lu-99, 144 h, read-out: IC50 (nM) Lu99 MTAP(-/-)Deleted, LU99 MTAP(-/-)deleted cells, 6 d incubation, Cell-Titer Glo
Compound,IC50 (HCT-116 wild-type cells),"IC50 [1, 4]","IC50 ([2]; HCT-116 MTAP(-/-)deleted cells, 8 d incubation, Cell-Titer Glo)",IC50 [3],"IC50 (HCT-116 wild-type cells; Homo sapiens, HCT-116, 192 h)","IC50 ([2]; Homo sapiens, HCT-116, 192 h)","IC50 ([3]; Homo sapiens, Lu-99, 144 h)","IC50 [1, 5]"
"4-amino-N-methyl-N-(7'-(trifluoromethyl)spiro[cyclobutane-1,1'-isochroman]-4'-yl)imidazo[1,5-a]quinoxaline-8-carboxamide [Example 1]",959 nM,13.2 nM,10 nM,652 nM,,,,
"CN(C(=O)c1ccc2nc(N)c3cncn3c2c1)[C@H]1COC2(CCC2)c2cc(C(F)(F)F)ccc21 (stereo in doubt) [Example 4, (R)-4-amino-N-methyl-N-(7'-(trifluoromethyl)spiro[cyclobutane-1,1'-isochroman]-4'-yl)imidazo[1,5-a]quinoxaline-8-carboxamide]",,1100 nM,,742 nM,,,,
"CN(C(=O)c1ccc2nc(N)c3cncn3c2c1)[C@H]1COC2(CCC2)c2cc(C(F)(F)F)ccc21 [Example 3, (R)-4-amino-N-methyl-N-(7'-(trifluoromethyl)spiro[cyclobutane-1,1'-isochroman]-4'-yl)imidazo[1,5-a]quinoxaline-8-carboxamide]",,8.3 nM,,,636 nM,5.1 nM,624 nM,
"CN(C(=O)c1ccc2nc(N)c3cncn3c2c1)[C@@H]1COC2(CCC2)c2nc(N3CCOCC3)ccc21 [Example 5, (S)-4-amino-N-methyl-N-(2'-morpholinyl-5',6'-dihydrospiro[cyclobutane-1,8'-pyrano[3,4-b]pyridine]-5'-yl)imidazo[1,5-a]quinoxaline-8-carboxamide]",,,,,,,2360 nM,961 nM
"CN(C(=O)c1ccc2nc(N)c3cncn3c2c1)C1COC2(CCC2)c2cc(C(F)(F)F)ccc21 (stereo not shown) [Example 7, 4-Amino-N-methyl-N-(7'-(trifluoromethyl)spiro[cyclobutane-1,1'-isochroman]-4'-yl)imidazo[1,5-a]quinoxaline-8-carboxamide]",,,,,636 nM,5.1 nM,624 nM,8.3 nM
"CN(C(=O)c1ccc2nc(N)c3cncn3c2c1)C1COC2(CC2)c2cc(C(F)(F)F)ccc21 (stereo not shown) [Example 8, 4-Amino-N-methyl-N-(7'-(trifluoromethyl)spiro[cyclopropane-1,1'-isochroman]-4'-yl)imidazo[1,5-a]quinoxaline-8-carboxamide]",,,,,3930 nM,9 nM,2310 nM,13.4 nM
"CN(C(=O)c1ccc2nc(N)c3cncn3c2c1)C1COC2(CCCC2)c2cc(C(F)(F)F)ccc21 (stereo not shown) [Example 9, 4-Amino-N-methyl-N-(7'-(trifluoromethyl)spiro[cyclopentane-1,1'-isochroman]-4'-yl)imidazo[1,5-a]quinoxaline-8-carboxamide]",,,,,2220 nM,6.5 nM,1980 nM,10.9 nM
"CN(C(=O)c1ccc2nc(N)c3cncn3c2c1)C1COC2(CCOCC2)c2cc(C(F)(F)F)ccc21 (stereo not shown) [Example 12, 4-Amino-N-methyl-N-(7'-(trifluoromethyl)-2',3',5',6'-tetrahydrospiro[isochroman-1,4'-pyran]-4-yl)imidazo[1,5-a]quinoxaline-8-carboxamide]",,,,,1730 nM,7.64 nM,1640 nM,8.8 nM
"CN(C(=O)c1cc2c(cc1F)nc(N)c1cncn12)C1COC2(CCC2)c2cc(C(F)(F)F)ccc21 (stereo not shown) [Example 13, 4-Amino-7-fluoro-N-methyl-N-(7'-(trifluoromethyl)spiro[cyclobutane-1,1'-isochroman]-4'-yl)imidazo[1,5-a]quinoxaline-8-carboxamide]",,,,,597 nM,5.3 nM,773 nM,7.8 nM
"CN(C(=O)c1cc2c(cc1F)nc(N)c1cncn12)[C@@H]1COC2(CCC2)c2cc(C(F)(F)F)ccc21 [Example 15, (S)-4-amino-7-fluoro-N-methyl-N-(7'-(trifluoromethyl)spiro[cyclobutane-1,1'-isochroman]-4'-yl)imidazo[1,5-a]quinoxaline-8-carboxamide]",,,,,,,425 nM,7.1 nM
"CN(C(=O)c1cc2c(cc1F)nc(N)c1cncn12)C1COC2(CCOCC2)c2cc(C(F)(F)F)ccc21 (stereo not shown) [Example 16, 4-Amino-7-fluoro-N-methyl-N-(7-(trifluoromethyl)-2',3',5',6'-tetrahydrospiro[isochroman-1,4'-pyran]-4-yl)imidazo[1,5-a]quinoxaline-8-carboxamide]",,,,,1610 nM,5.9 nM,1290 nM,10.8 nM
"Cn1cc(N(C(=O)c2ccc3nc(N)c4cncn4c3c2)C2COC3(CCC3)c3cc(C(F)(F)F)ccc32)cn1 (stereo not shown) [Example 17, 4-Amino-N-(1-methyl-1H-pyrazol-4-yl)-N-(7'-(trifluoromethyl)spiro[cyclobutane-1,1'-isochroman]-4'-yl)imidazo[1,5-a]quinoxaline-8-carboxamide]",,,,,324 nM,5.17 nM,104 nM,4.5 nM
CN(C(=O)c1ccc2nc(N)c3cncn3c2c1)C1COC(C)(C)c2c1ccc1c2OCO1 (stereo not shown) [Example 18],,,,,,,756 nM,99.6 nM
"Cc1ncc2c(N)nc3cc(F)c(C(=O)N(C)C4COC5(CCOCC5)c5cc(C(F)(F)F)ccc54)cc3n12 (stereo not shown) [Example 19, 4-Amino-7-fluoro-N,1-dimethyl-N-(7-(trifluoromethyl)-2',3',5',6'-tetrahydrospiro[isochroman-1,4'-pyran]-4-yl)imidazo[1,5-a]quinoxaline-8-carboxamide]",,,,,2710 nM,21.7 nM,1390 nM,31.3 nM
"Cc1ncn2c1c(N)nc1cc(F)c(C(=O)N(C)C3COC4(CCOCC4)c4cc(C(F)(F)F)ccc43)cc12 (stereo not shown) [Example 20, 4-Amino-7-fluoro-N,3-dimethyl-N-(7-(trifluoromethyl)-2',3',5',6'-tetrahydrospiro[isochroman-1,4'-pyran]-4-yl)imidazo[1,5-a]quinoxaline-8-carboxamide]",,,,,920 nM,9.46 nM,1070 nM,20.5 nM
"CN(C(=O)c1ccc2nc(N)c3cncn3c2c1)C1COC2(CCCOC2)c2cc(C(F)(F)F)ccc21 (stereo not shown) [Example 24, 4-Amino-N-methyl-N-(7-(trifluoromethyl)-5',6'-dihydro-2'H,4'H-spiro[isochroman-1,3'-pyran]-4-yl)imidazo[1,5-a]quinoxaline-8-carboxamide]",,,,,,,1470 nM,9.54 nM
"CN(C(=O)c1cc2c(cc1F)nc(N)c1cncn12)C1COC2(CCCOC2)c2cc(C(F)(F)F)ccc21 (stereo not shown) [Example 50, 4-Amino-7-fluoro-N-methyl-N-(7-(trifluoromethyl)-5',6'-dihydro-2'H,4'H-spiro[isochroman-1,3'-pyran]-4-yl)imidazo[1,5-a]quinoxaline-8-carboxamide]",,,,,,,591 nM,7.13 nM
"CN(C(=O)c1ccc2nc(N)c3cncn3c2c1)C1COC(C)(C)c2cc(C(F)(F)F)ncc21 (stereo not shown) [Example 99, 4-Amino-N-(1,1-dimethyl-7-(trifluoromethyl)-3,4-dihydro-1H-pyrano[4,3-c]pyridin-4-yl)-N-methylimidazo[1,5-a]quinoxaline-8-carboxamide]",,,,,,,2970 nM,152 nM
